SMILES strings stand for the structures.

Assay type in all cases: functional
The test system of one assay is Fusarium solani. Description: Antifungal activity against Fusarium solani assessed as fungus growth at 200 mg/ml by agar dilution method relative to control.
The subject of assay [1] is Pseudomonas aeruginosa. Description: Antibacterial activity against Pseudomonas aeruginosa assessed as bacterial growth at 200 mg/ml by agar dilution method relative to control.
In a further assay the test system is Rhyzopertha dominica. Description: Insecticidal activity against Rhyzopertha dominica assessed as mortality at 200 ug/ml.
A further assay deals with Sitophilus oryzae. The assay is described as follows: Insecticidal activity against Sitophilus oryzae (rice weevil) assessed as mortality at 200 ug/ml.
Another assay has as its system Tribolium castaneum. The assay is described as follows: Insecticidal activity against Tribolium castaneum (red flour beetle) assessed as mortality at 200 ug/ml.
The next assay relates to Nakaseomyces glabratus. The assay is described as follows: Antifungal activity against Candida glabrata assessed as fungus growth at 200 mg/ml by agar dilution method relative to control. Background: In agar dilution the substance is mixed into plates at graded concentrations.
A further assay has as its system Aspergillus flavus. Description: Antifungal activity against Aspergillus flavus assessed as fungus growth at 200 mg/ml by agar dilution method relative to control.
The next assay concerns Candida albicans. Description: Antifungal activity against Candida albicans assessed as fungus growth at 200 mg/ml by agar dilution method relative to control.
A further assay has as its system Trichophyton longifusum. Description: Antifungal activity against Trichophyton longifusum assessed as fungus growth at 200 mg/ml by agar dilution method relative to control.
Assay [2] relates to Pseudomonas aeruginosa. The assay is described as follows: Antibacterial activity against Pseudomonas aeruginosa at 2 mg/ml by agar well diffusion method. The settings on record: read-out: DIZ. On the technique in general: In agar diffusion tests the substance spreads into inoculated agar from a disc or well.
The subject of a further assay is Staphylococcus aureus. The assay is described as follows: Antibacterial activity against Staphylococcus aureus at 2 mg/ml by agar well diffusion method. As to conditions: read-out: DIZ.
In another assay the test system is Bacillus subtilis. The assay is described as follows: Antibacterial activity against Bacillus subtilis at 2 mg/ml by agar well diffusion method. As to conditions: read-out: DIZ.
The test system of another assay is Escherichia coli. Description: Antibacterial activity against Escherichia coli at 2 mg/ml by agar well diffusion method. As to conditions: read-out: DIZ.
The test system of the next assay is Callosobruchus analis. The assay is described as follows: Insecticidal activity against Callosobruchus analis assessed as mortality at 200 ug/ml.

Take `Cc1ccc(C(=O)n2cc(C)n(-c3ccccc3Cl)c2=S)cc1`: the Activity with Fusarium solani is recorded as 100%; with Pseudomonas aeruginosa [1], 100%; in the assay on Rhyzopertha dominica, 25%; in the assay on Sitophilus oryzae, 43%; in the assay with Tribolium castaneum, 20%; with Nakaseomyces glabratus it was 90%. Besides, the Activity in the assay on Aspergillus flavus was 86%; with Candida albicans, 100%; in the assay with Trichophyton longifusum it was 90%; with Callosobruchus analis, 10%. In addition, the zone of inhibition at 2000 µg/mL was 12 mm in the assay with Pseudomonas aeruginosa [2], 21 mm with Staphylococcus aureus, 15 mm in the assay on Bacillus subtilis and 17 mm with Escherichia coli.
`Cc1ccc(C(=O)n2cc(C)n(-c3ccc(Cl)cc3)c2=S)cc1`: the Activity was 85% in the assay on Fusarium solani; 100% in the assay on Pseudomonas aeruginosa [1]; 20% in the assay with Rhyzopertha dominica; 10% with Sitophilus oryzae; 19% in the assay with Tribolium castaneum; 100% in the assay on Nakaseomyces glabratus. The Activity with Aspergillus flavus is 69%; in the assay with Candida albicans, 68%; in the assay with Trichophyton longifusum it was 79%; in the assay with Callosobruchus analis, 0%. The zone of inhibition at 2000 µg/mL in the assay with Pseudomonas aeruginosa [2] is 17 mm; in the assay on Staphylococcus aureus, 20 mm; in the assay on Bacillus subtilis it was 13 mm; in the assay on Escherichia coli, 19 mm.

For the origin of these results see ChEMBL document CHEMBL3046622, “Synthesis and bioactivity of some new 1-tolyl-3-aryl-4-methylimidazole-2-thiones” (2007).
